From ChEMBL document CHEMBL1151616, “Na+-K+-ATPase inhibitors from Lysimachia japonica” (J Nat Prod, 1984)

Assay: Inhibition of Na+K+ATpase from pig cortex
Design: species or system Sus scrofa

Work on C[C@@H]1O[C@@H](O[C@H]2C[C@@H](O)[C@]3(CO)[C@H]4[C@H](O)C[C@]5(C)[C@@H](C6=CC(=O)OC6)CC[C@]5(O)[C@@H]4CC[C@]3(O)C2)[C@H](O)[C@H](O)[C@H]1O [OUABAIN] yielded an IC50 of 0.6 µM.
